Measurements published in patent US20260374781A1, “NOVEL TRIHETEROCYCLIC COMPOUNDS” (IDENCE CO., LTD., priority 2022, published 2026).

Key:
AsPC-1 cells = assay: Cell Proliferation Assay, AsPC-1 (CellTiter-Glo 2.0 viability); format: cell-based; settings: AsPC-1 pancreatic cancer (KRAS G12D mutation)
Protocol: (§1) Test Example 3: Cell Proliferation Assay
(§2) Cell viability testing of test compounds in AsPC-1 pancreatic cancer (KRAS G12D mutation) or SW480 colon cancer (KRAS G12V mutation) cells for 72 hours
(§3) The reference compound Staurosporine was purchased from Sigma-Aldrich (Saint Louis, MI), and CellTiter-Glo® 2.0 Luminescent cell viability assay reagent (cat #G9243) was purchased from Promega (Madison, WI). AsPC-1 and SW480 cell lines were purchased from American Type Culture Collection (Manassas, VA). AsPC-1 cells were cultured with RPMI-1640 (ATCC, cat #30-2001) and SW480 cells were cultured with DMEM (ATCC cat #30-2002).
(§4) A medium supplemented with 10% FBS (Sigma-Aldrich, cat #F2442) and 100 µg/mL of penicillin-streptomycin (Sigma-Aldrich, cat #P4333) was used. Cells were cultured at 37 °C in a humidified atmosphere of 5% CO2 and 95% air.
(§5) • 1. The test compound and reference compound, Staurosporine were dissolved in DMSO solution to prepare 20 mM (test compound) and 10 mM (control compound, Staurosporine) in the Source Plate and diluted with DMSO to 3-fold and 10 doses. • 2. From the Source Plate, 10 volumes of 125 nL test compound or 25 nL reference compound were dispensed into wells of a 384-well culture plate (VWR, cat #82050-076) using Echo 655. • 3. 25 μL of culture medium including 2000 AsPC-1 or SW480 cells was dispensed into each 384-well cell culture plate. • 4. Cells were cultured with the compound for 72 hours at 37 °C and 5% CO2 conditions. • 5. 25 μL of CellTiter-Glo 2.0 reagent was added to each well of the plate. • 6. The contents were mixed for 2 minutes on an orbital shaker, and the luminescence signal was stabilized at room temperature for 15 minutes. • 7. Luminescence signals were measured with an Envision 2104 Multilabel Reader (PerkinElmer, Santa Clara, CA), and the number of surviving cells was determined through quantification of ATP present in each culture. • 8. IC50 values were calculated based on the Sigmoidal dose-response equation in the GraphPad Prism 4 program.

KRAS G12V = target: T1, KRAS G12V (Homo sapiens, UniProt P01116, G12V); assay: KRAS Nucleotide Exchange Assay (SOS1-mediated), G12V; format: biochemical; settings: HTRF, 20 nM KRAS, 50 nM SOS1, 60 minutes preincubation, 60 minutes reaction
T1 construct: GST-tagged KRAS WT or mutant protein (amino acids 2-169)
From the text: (§6) Test Example 1: KRAS Nucleotide Exchange Assay
(§7) Evaluation of the inhibitory effect of compounds on SOS1-mediated nucleotide exchange activity of KIRAS^WT, KRAS^G12D, KRAS^G12V, KRAS^G12C and KRAS^G13D mutants
(§8) The assay monitors SOS1 mediated exchange of KRAS bound unlabeled GDP to fluorescently labeled GTP. The detection is based on the transfer of energy between two fluorophores when they are in close proximity. Donor is the Tb cryptate labeled anti-GST antibody and acceptor is a DY-647P1 GTP.
(§9) • GST-tagged KRAS WT or mutant protein (amino acids 2-169), • SOS1 (amino acids 564-1049), • Labeled GTP (GTP-DY-647P1), • Assay Buffer (20 mM HEPES pH 7.4, 150 mM NaCl, 5 mM MgCl2, 1 mM DTT, 0.05% BSA, 0.0025% NP40)
(§10) • 1. KRAS protein was diluted with assay buffer to reach 1.5 times of the final concentration, then mixed with Tb cryptate anti-GST antibody and added at 10 μL to each assay well (all of the final concentration was 20 nM for KRAS^WT, KRAS^G12D, and KRAS^G12V) • 2. The compound was dissolved in DMSO and diluted to prepare 100 times of the final concentration. • 3. Compounds were dispensed into assay wells using an ECHO acoustic dispenser (Beckman), mixed gently with the KRAS/Ab mixture, and incubated for 60 minutes. • 4. SOS1 and labeled GTP were mixed, diluted to 3 times of the final concentration with assay buffer, and 5 μL of the solution was added to the assay well to initiate the reaction (final concentration of labeled GTP was […], final concentration of SOS1 was 7.5 nM in WT, 12.5 nM in G12D and 50 nM in G12V). Only assay buffer and labeled GTP were added to the blank well. • 5. The reaction was monitored at Ex/Em=(337/665; 337/620) using a Pherastar Plate Reader (BMG). • 6. HTRF signals were analyzed approximately 25 minutes after the start of the reaction (60 minutes reaction for G12V). • 7. Nucleotide exchange activity is expressed as a percentage difference compared to the DMSO reaction value, and the IC50 value was calculated based on the four-parameter logistic equation in GraphPad 4.0 software.

KRAS G12C = target: T2, KRAS G12C (Homo sapiens, UniProt P01116, G12C); assay: KRAS Nucleotide Exchange Assay (SOS1-mediated), G12C; format: biochemical; settings: HTRF, 60 minutes preincubation, approximately 25 minutes reaction
T2 construct: GST-tagged KRAS WT or mutant protein (amino acids 2-169)
From the text: as §6, §7, §8, §9, §10

SW480 cells = assay: Cell Proliferation Assay, SW480 (CellTiter-Glo 2.0 viability); format: cell-based; settings: Homo sapiens; SW480 colon cancer (KRAS G12V mutation); 72 hours
Protocol: as §1, §2, §3, §4, §5

KRAS G12D = target: T3, KRAS G12D (Homo sapiens, UniProt P01116, G12D); assay: KRAS Nucleotide Exchange Assay (SOS1-mediated), G12D; format: biochemical; settings: HTRF, 20 nM KRAS, 12.5 nM SOS1, 60 minutes preincubation, approximately 25 minutes reaction
T3 construct: GST-tagged KRAS WT or mutant protein (amino acids 2-169)
From the text: as §6, §7, §8, §9, §10

KRAS G13D = target: T4, KRAS G13D (Homo sapiens, UniProt P01116, G13D); assay: KRAS Nucleotide Exchange Assay (SOS1-mediated), G13D; format: biochemical; settings: HTRF, 60 minutes preincubation, approximately 25 minutes reaction
T4 construct: GST-tagged KRAS WT or mutant protein (amino acids 2-169)
From the text: as §6, §7, §8, §9, §10

KRAS WT = target: T5, KRAS WT (Homo sapiens, UniProt P01116); assay: KRAS Nucleotide Exchange Assay (SOS1-mediated), WT; format: biochemical; settings: HTRF, 20 nM KRAS, 7.5 nM SOS1, 60 minutes preincubation, approximately 25 minutes reaction
T5 construct: GST-tagged KRAS WT or mutant protein (amino acids 2-169)
From the text: as §6, §7, §8, §9
• 1. […] The reaction was monitored at Ex/Em=(337/665; 337/620) using a Pherastar Plate Reader (BMG). • 6. HTRF signals were analyzed approximately 25 minutes after the start of the reaction (60 minutes reaction for G12V). • 7. Nucleotide exchange activity is expressed as a percentage difference compared to the DMSO reaction value, and the IC50 value was calculated based on the four-parameter logistic equation in GraphPad 4.0 software.

T2 sequence (P01116 2-169 isoform P01116-2 G12C): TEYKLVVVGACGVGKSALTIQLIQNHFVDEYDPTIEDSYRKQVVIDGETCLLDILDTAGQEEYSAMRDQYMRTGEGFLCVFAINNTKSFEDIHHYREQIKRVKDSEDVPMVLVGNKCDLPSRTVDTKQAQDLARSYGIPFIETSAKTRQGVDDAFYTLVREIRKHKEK
T3 sequence (P01116 2-169 isoform P01116-2 G12D): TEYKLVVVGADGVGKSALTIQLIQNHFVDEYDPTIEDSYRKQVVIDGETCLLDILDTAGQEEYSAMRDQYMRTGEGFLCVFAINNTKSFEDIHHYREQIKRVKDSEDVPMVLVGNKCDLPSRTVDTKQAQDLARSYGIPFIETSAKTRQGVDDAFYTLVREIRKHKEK
T4 sequence (P01116 2-169 isoform P01116-2 G13D): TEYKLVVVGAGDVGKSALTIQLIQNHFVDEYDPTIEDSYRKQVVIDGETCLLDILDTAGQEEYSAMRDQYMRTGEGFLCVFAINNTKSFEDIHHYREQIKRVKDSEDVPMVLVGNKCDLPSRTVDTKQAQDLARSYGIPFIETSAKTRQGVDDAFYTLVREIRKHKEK
T1 sequence (P01116 2-169 isoform P01116-2 G12V): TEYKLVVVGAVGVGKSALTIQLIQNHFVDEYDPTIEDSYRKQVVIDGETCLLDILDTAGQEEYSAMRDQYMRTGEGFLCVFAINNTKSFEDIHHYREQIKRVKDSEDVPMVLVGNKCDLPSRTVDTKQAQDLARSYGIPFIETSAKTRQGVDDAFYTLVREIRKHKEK
T5 sequence (P01116 2-169 isoform P01116-2): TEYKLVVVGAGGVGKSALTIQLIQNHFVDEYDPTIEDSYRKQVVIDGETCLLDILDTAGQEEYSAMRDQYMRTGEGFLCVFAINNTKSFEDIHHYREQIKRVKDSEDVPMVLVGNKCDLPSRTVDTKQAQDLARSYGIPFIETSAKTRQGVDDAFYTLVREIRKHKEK

| SMILES | IC50 (AsPC-1 cells; Homo sapiens, ASPC1, 72 h) [nM] | IC50 (KRAS G12V) [nM] | IC50 (KRAS G12C) [nM] | IC50 (SW480 cells) [nM] | IC50 (KRAS G12D) [nM] | IC50 (KRAS G13D) [nM] | IC50 (KRAS WT) [nM] | IC50 (AsPC-1 cells; 72 hours) [nM] |
| --- | --- | --- | --- | --- | --- | --- | --- | --- |
| CCc1c(F)ccc2cc(O)cc(-c3nc4c5c(nc(OC[C@@]67CCCN6C[C@H](F)C7)nc5c3F)N(C(C)c3cccnc3N)CCO4)c12 (mixture of isomers) [Example 14, 4-(10-(1-(2-aminopyridin-3-yl)ethyl)-4-fluoro-2-(((2R,7aS)-2-fluorotetrahydro-1H-pyrrolizin-7a(5H)-yl)methoxy)-9,10-dihydro-8H-7-oxa-1,3,6,10-tetraazacyclohepta[de]naphthalen-5-yl)-5-ethyl-6-fluoronaphthalen-2-ol] | < 1000 | 2.79 | 1.78 | < 1000 | 3.79 | 8.71 | – | – |
| C[C@H](c1cccnc1N)N1C[C@H](C)Oc2nc(-c3cc(O)cc4ccc(F)c(F)c34)c(F)c3nc(OC[C@@]45CCCN4C[C@H](F)C5)nc1c23 (stereo in doubt) [Example 10a, 4-((S)-10-((R)-1-(2-aminopyridin-3-yl)ethyl)-4-fluoro-2-(((2R,7aS)-2-fluorotetrahydro-1H-pyrrolizin-7a(5H)-yl)methoxy)-8-methyl-9,10-dihydro-8H-7-oxa-1,3,6,10-tetraazacyclohepta[de]naphthalen-5-yl)-5,6-difluoronaphthalen-2-ol] | > 10000 | 1.59 | 0.608 | – | 3.67 | 6.97 | – | – |
| CCc1c(F)ccc2cc(O)cc(-c3nc4c5c(nc(OC[C@@]67CCCN6C[C@H](F)C7)nc5c3F)N(CC3(N(C)C)CCC3)CCO4)c12 [Example 1, 4-(10-((1-(dimethylamino)cyclobutyl)methyl)-4-fluoro-2-(((2R,7aS)-2-fluorotetrahydro-1H-pyrrolizin-7a(5H)-yl)methoxy)-9,10-dihydro-8H-7-oxa-1,3,6,10-tetraazacyclohepta[de]naphthalen-5-yl)-5-ethyl-6-fluoronaphthalen-2-ol] | > 10000 | 33.4 | – | – | 1.26 | – | 6.22 | – |
| C#Cc1c(F)ccc2cc(O)cc(-c3nc4c5c(nc(OC[C@@]67CCCN6C[C@H](F)C7)nc5c3F)N(CC3(N(C)C)CCC3)CCO4)c12 [Example 2, 4-(10-((1-(dimethylamino)cyclobutyl)methyl)-4-fluoro-2-(((2R,7aS)-2-fluorotetrahydro-1H-pyrrolizin-7a(5H)-yl)methoxy)-9,10-dihydro-8H-7-oxa-1,3,6,10-tetraazacyclohepta[de]naphthalen-5-yl)-5-ethynyl-6-fluoronaphthalen-2-ol] | 1000 to 10000 | – | – | – | 1.34 | – | – | – |
| CCc1c(F)ccc2cc(O)cc(-c3nc4c5c(nc(OC[C@@]67CCCN6C[C@H](F)C7)nc5c3F)N(C(C)c3cccnc3N)C[C@H](C)O4)c12 (stereo partly drawn) [Example 3, 4-((8S)-10-(1-(2-aminopyridin-3-yl)ethyl)-4-fluoro-2-(((2R,7aS)-2-fluorotetrahydro-1H-pyrrolizin-7a(5H)-yl)methoxy)-8-methyl-9,10-dihydro-8H-7-oxa-1,3,6,10-tetraazacyclohepta[de]naphthalen-5-yl)-5-ethyl-6-fluoronaphthalen-2-ol] | > 10000 | 3.25 | – | – | 8.69 | – | – | – |
| CCc1c(F)ccc2cc(O)cc(-c3nc4c5c(nc(OC[C@@]67CCCN6C[C@H](F)C7)nc5c3F)N([C@H](C)c3cccnc3N)C[C@H](C)O4)c12 [Example 3a, 4-((S)-10-((R)-1-(2-aminopyridin-3-yl)ethyl)-4-fluoro-2-(((2R,7aS)-2-fluorotetrahydro-1H-pyrrolizin-7a(5H)-yl)methoxy)-8-methyl-9,10-dihydro-8H-7-oxa-1,3,6,10-tetraazacyclohepta[de]naphthalen-5-yl)-5-ethyl-6-fluoronaphthalen-2-ol] | > 10000 | 2.19 | – | – | 5.76 | – | – | – |
| CCc1c(F)ccc2cc(O)cc(-c3nc4c5c(nc(OC[C@@]67CCCN6C[C@H](F)C7)nc5c3F)N([C@@H](C)c3cccnc3N)C[C@H](C)O4)c12 [Example 3b, 4-((S)-10-((S)-1-(2-aminopyridin-3-yl)ethyl)-4-fluoro-2-(((2R,7aS)-2-fluorotetrahydro-1H-pyrrolizin-7a(5H)-yl)methoxy)-8-methyl-9,10-dihydro-8H-7-oxa-1,3,6,10-tetraazacyclohepta[de]naphthalen-5-yl)-5-ethyl-6-fluoronaphthalen-2-ol] | – | 62.1 | – | – | 176 | – | – | – |
| C#Cc1c(F)ccc2cc(O)cc(-c3nc4c5c(nc(OC[C@@]67CCCN6C[C@H](F)C7)nc5c3F)N(C(C)c3cccnc3N)CCO4)c12 (stereo partly drawn) [Example 13, 4-(10-(1-(2-aminopyridin-3-yl)ethyl)-4-fluoro-2-(((2R,7aS)-2-fluorotetrahydro-1H-pyrrolizin-7a(5H)-yl)methoxy)-9,10-dihydro-8H-7-oxa-1,3,6,10-tetraazacyclohepta[de]naphthalen-5-yl)-5-ethynyl-6-fluoronaphthalen-2-ol] | – | 1.38 | 0.609 | < 1000 | 1.65 | 3.69 | – | < 1000 |
| CC(c1cccnc1N)N1CCOc2nc(-c3cc(O)cc4ccc(F)c(F)c34)c(F)c3nc(OC[C@@]45CCCN4C[C@H](F)C5)nc1c23 (stereo partly drawn) [Example 16, 4-(10-(1-(2-aminopyridin-3-yl)ethyl)-4-fluoro-2-(((2R,7aS)-2-fluorotetrahydro-1H-pyrrolizin-7a(5H)-yl)methoxy)-9,10-dihydro-8H-7-oxa-1,3,6,10-tetraazacyclohepta[de]naphthalen-5-yl)-5,6-difluoronaphthalen-2-ol] | < 1000 | 2.3 | 0.916 | < 1000 | 2.35 | 4.94 | – | – |
